Tested on: male Wistar rats
Assay: Pulmonary paracellular permeability to 125I labelled human serum albumin after intratracheal Pseudomonas aeruginosa LPS
Assay type: in vivo, rat
Method: Pulmonary permeability was measured by means of a tracer, ^125I -labelled human serum albumin which, after intratracheal infusion, was determined in urine, plasma, lung tissue and bronchoalveolar lavage fluid.
For this experiment, three groups of 6 male Wistar rats (200-225 g) were pretreated either with ML-7 by the IP route (3 mg/kg then 1 mg/kg 3 times a day for 48 h) or the vehicle (ethanol 10%). One hour after the next-to-last administration of ML-7, under urethane anesthesia ([…] IP), a slow intratracheal infusion of 150 μl of an iso-osmolar solution (5% bovine albumin +PBS) containing the tracer and containing (2 groups) or not containing (control group) LPS (1 μg/rat) was given.
Four hours after the intratracheal infusion, urine, blood, bronchoalveolar lavage (BAL) and lungs were harvested and ^125I radioactivity was measured on each sample.

O=S(=O)(c1cccc2c(I)cccc12)N1CCCNCC1 [ML-7, 1-(5-iodonaphtalene-1-sulfonyl)-1H-hexahydro-1,4-diazepine]
LPS-induced increase in pulmonary permeability (ML-7 pretreatment IP 3 mg/kg then 1 mg/kg 3 times a day for 48 h): inhibited | effect on vascular endothelial cells (endothelium permeability, tone, pulmonary circulating hemodynamics) (inferred from unchanged plasma radioactivity): does not present effect

From patent publication US20030125321A1, “Methods and compositions for treating respiratory pathologies” (priority 2001, published 2003)
